Our source for the melting point values is US6919379B2, “Compounds useful in reflux disease” (AstraZeneca AB, priority 2001, dated 2005).

For the molecule `NC[C@@H](F)CS(=O)O`, the melting point is 136 to 138 °C.

Consider `NC[C@H](O)CS(=O)O` [Example 1, (2S)-(3-Amino-2-hydroxypropyl)sulphinic acid], for which the melting point is 206 to 208 °C.

The molecule `NC[C@@H](O)CS(=O)O` [Example 2, (2R)-(3-Amino-2-hydroxypropyl)sulphinic acid] returned a melting point of 210 °C.
